Data as given in article PMC12257394, “Design, Synthesis, and Biological Evaluation of Ferrocenyl–Cyclo-(Gly‑L‑Pro) Hybrids Sensitizing Multidrug-Resistant Cancer Cells to Anticancer Agents” (ACS Medicinal Chemistry Letters, 2025).

Experiment: Neutral red uptake viability assay, SW620V
Type: cell-based, human
Conditions: human, SW620V cells (vincristine-resistant), 72 h, n = 3, read-out: Cytotoxic activity IC50 (95% CI)
Description: In general, compounds 4a–e exerted little or no cytotoxic effect on either SW620 or multidrug-resistant sublines even at 10 μM, with the remarkable exception of SW620C (cisplatin-selected variant of SW620) cells, which turned out to be relatively susceptible toward ferrocenyl 4a–c. […] This trend may reflect steric or electronic contributions to cellular uptake or interaction with intracellular targets. […] However, since E/Z isomeric data are currently available only for compound 4c, this hypothesis requires validation. To quantify this effect, IC50 values were determined (Table ). […]
The normal lung fibroblast MRC-5 and colorectal adenocarcinoma SW620 cell lines used in this experiment were purchased from American Type Culture Collection (USA) via LGC […]
Standards. Multidrug-resistant variants of SW620 cells were developed in our laboratory as described previously.10, 11 All cells were cultured under standard conditions (37°C, 5% CO2, 100% humidity) in high-glucose DMEM supplemented with GlutaMaxTM, HEPES (ThermoFisher Scientific, USA), and 10% fetal bovine serum (EURx, Poland). Cells were routinely tested for potential Mycoplasma contamination using the MycoProbe Mycoplasma Detection kit (R&D System, USA).
In total, 104 cells in 100 µL of complete medium were plated per well of a 96-well plate and left overnight to allow cells to adhere to the surface. Then, the cells were exposed to a desired concentration of tested compound(s). Stock solutions were prepared in DMSO and used immediately. The final DMSO concentration was constant and nontoxic (0.1% v/v). After 70-h incubation, neutral red was added to the final concentration of 1 mM. After another 2 h, the medium was aspirated, and cells were washed twice with PBS. Dye was released using 100 µL of a solubilizer (1% acetic acid in 50% ethanol) on an orbital shaker (10 min). Absorbance was read at 540 nm using EnVision Multilabel Plate Reader (Perkin Elmer, USA). Results were expressed as % of control. The IC50 parameters were calculated using GraphPad Prism version 10 (GraphPad Software, Boston, Massachusetts USA).
The enhancement of reversal potency (ERP) value determination
For MDR reversal assays, cytotoxic agents were co-administered with compounds 4a–4e at equimolar concentrations in a range of 10 nM to 100 µM. IC₅₀ values were determined in ABCB1-overexpressing SW620 cell line variants. The enhancement of reversal potency (ERP) was calculated using the following formula: ERP = IC₅₀(drug)MDR / IC₅₀(drug + compound)MDR. All experiments were performed in triplicate (n = 3).

Row | Compound | IC50 at 72 h
1 | O=C1N/C(=C/c2ccccc2)C(=O)N2CCC[C@@H]12 [(S,E)-4e] | > 100 µM
2 | O=C1N/C(=C\c2ccccc2)C(=O)N2CCC[C@@H]12 [(S,Z)-4e] | > 100 µM
